Test results published in ChEMBL document CHEMBL1147633, “Structure-activity relationships of a novel class of endothelin receptor selective antagonists; 6-carboxy-2-isopropylamino-5,7-diarylcyclopenteno[1,2-b]pyridines” (Bioorg Med Chem Lett, 2004).

Legend:
[1] = biological target: Endothelin receptor, ET-A/ET-B (Homo sapiens) (UniProt P24530+P25101); assay: Selectivity ratio of inhibitory activity towards endothelin receptor A to endothelin receptor B (ETB/ETA); type: protein assay
[2] = Bioavailability in rat (dose 3 mg/kg p.o.); type: ADME, organism-based; conditions: in vivo, po
Rattus norvegicus [3] = assay: Plasma levels of compound was evaluated in rats after 4 hr of oral administration at 3 mg/kg; type: functional, organism-based; set-up: dose 3 mg/kg
Rattus norvegicus [4] = assay: Plasma levels of compound was evaluated in rats after 8 hr of oral administration at 3 mg/kg; type: functional, organism-based; set-up: dose 3 mg/kg
Endothelin-1 receptor = biological target: T1, Endothelin-1 receptor (Homo sapiens, UniProt P25101); assay: Inhibitory activity against [125I]ET1 binding to human endothelin A receptor
T1 sequence (P25101 whole entry): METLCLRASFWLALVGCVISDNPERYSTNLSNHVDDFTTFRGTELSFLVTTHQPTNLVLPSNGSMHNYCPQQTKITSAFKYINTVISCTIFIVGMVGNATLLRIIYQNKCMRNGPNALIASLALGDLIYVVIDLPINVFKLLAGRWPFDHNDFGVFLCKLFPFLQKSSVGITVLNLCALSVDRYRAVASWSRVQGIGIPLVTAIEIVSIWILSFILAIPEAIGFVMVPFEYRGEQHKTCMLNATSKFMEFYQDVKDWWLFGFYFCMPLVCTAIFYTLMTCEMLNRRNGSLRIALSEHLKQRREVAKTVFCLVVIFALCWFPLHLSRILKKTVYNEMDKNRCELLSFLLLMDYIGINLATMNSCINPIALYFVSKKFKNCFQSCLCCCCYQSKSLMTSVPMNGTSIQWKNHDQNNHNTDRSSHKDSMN

Mus musculus = assay: In vivo efficacy of compound was determined in mouse after intravenous administration; type: functional
Oryctolagus cuniculus = species on record: Oryctolagus cuniculus; assay: Antagonistic activity towards endothelin A receptor was evaluated using the rabbit iliac artery in presence of 3% human serum albumin; type: functional
Rattus norvegicus [5] = assay: Plasma levels of compound was evaluated in rats after 1 hr of oral administration at 3 mg/kg; type: functional, organism-based; set-up: dose 3 mg/kg
[6] = biological target: T2, Endothelin receptor type B (Homo sapiens, UniProt P24530); assay: Inhibitory activity against [125I]ET1 binding to human endothelin B receptor
T2 sequence (P24530 whole entry): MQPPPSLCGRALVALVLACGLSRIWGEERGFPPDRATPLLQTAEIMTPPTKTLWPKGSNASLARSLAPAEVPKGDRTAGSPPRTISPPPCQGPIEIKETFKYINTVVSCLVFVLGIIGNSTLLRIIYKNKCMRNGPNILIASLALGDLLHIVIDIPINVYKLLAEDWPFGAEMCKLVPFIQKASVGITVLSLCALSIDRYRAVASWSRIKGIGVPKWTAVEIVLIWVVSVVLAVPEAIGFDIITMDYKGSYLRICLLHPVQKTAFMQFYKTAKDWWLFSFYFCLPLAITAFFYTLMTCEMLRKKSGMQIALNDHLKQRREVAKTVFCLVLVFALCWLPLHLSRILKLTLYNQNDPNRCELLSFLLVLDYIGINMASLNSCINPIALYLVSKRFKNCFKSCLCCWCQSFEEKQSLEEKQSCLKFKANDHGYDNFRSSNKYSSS

[7] = Bioavailability in rat (dose 1 mg/kg i.v.); type: ADME, organism-based; conditions: in vivo, iv
Rattus norvegicus [8] = assay: Plasma levels of compound was evaluated in rats after 8 hr of oral administration at 10 mg/kg; type: functional, organism-based; set-up: dose 10 mg/kg
Rattus norvegicus [9] = assay: Plasma levels of compound was evaluated in rats after 4 hr of oral administration at 10 mg/kg; type: functional, organism-based; set-up: dose 10 mg/kg
Rattus norvegicus [10] = assay: Plasma levels of compound was evaluated in rats after 1 hr of oral administration at 10 mg/kg; type: functional, organism-based; set-up: dose 10 mg/kg

Compound | Selectivity ratio [1] | IC50 (Endothelin-1 receptor) | IC50 [6] | also measured
CCC(CO)Cc1cc(OC)ccc1[C@@H]1c2nc(NC(C)C)ccc2[C@H](c2ccc3c(c2)OCO3)[C@H]1C(=O)O (stereo in doubt; form 1) [listing 1 of 2 here] | 350 | – | – | –
COc1ccc([C@@H]2c3nc(NC(C)C)ccc3[C@H](c3ccc4c(c3)OCO4)[C@H]2C(=O)O)c(CO)c1 | 1000 | 0.062 nM | 62 nM | bioavailability [2]: 57%; Plasma level (Rattus norvegicus [3]): 94 nM; Plasma level (Rattus norvegicus [4]): 19 nM; AD50 (Mus musculus): 0.12 MPK; PKB (Oryctolagus cuniculus): 7.76; Plasma level (Rattus norvegicus [5]): 130 nM
COc1ccc([C@@H]2c3nc(NC(C)C)ccc3[C@H](c3ccc4c(c3)OCO4)[C@H]2C(=O)O)c(CC(C)CO)c1 (stereo in doubt; form 1) [listing 1 of 2 here] | – | 0.041 nM | 54 nM | AD50 (Mus musculus): 0.034 MPK; PKB (Oryctolagus cuniculus): 8.33; bioavailability [7]: 7.6%
COc1ccc([C@@H]2c3nc(NC(C)C)ccc3[C@H](c3ccc4c(c3)OCO4)[C@H]2C(=O)O)c(OCC(C)C)c1 | 490 | 0.86 nM | 420 nM | –
COc1ccc([C@@H]2c3nc(NC(C)C)ccc3[C@H](c3ccc4c(c3)OCO4)[C@H]2C(=O)O)c(CC(C)C(=O)N(C)C)c1 (stereo in doubt) [listing 1 of 2 here] | 1800 | – | – | Plasma level (Rattus norvegicus [8]): 10 nM; Plasma level (Rattus norvegicus [9]): 7 nM; Plasma level (Rattus norvegicus [10]): 65 nM
COc1ccc([C@@H]2c3nc(NC(C)C)ccc3[C@H](c3ccc4c(c3)OCO4)[C@H]2C(=O)O)c(OC)c1 | 530 | 0.047 nM | 25 nM | –
CCOc1cc(OC)ccc1[C@@H]1c2nc(NC(C)C)ccc2[C@H](c2ccc3c(c2)OCO3)[C@H]1C(=O)O | 61 | 0.74 nM | 45 nM | –
COCC(C)Cc1cc(OC)ccc1[C@@H]1c2nc(NC(C)C)ccc2[C@H](c2ccc3c(c2)OCO3)[C@H]1C(=O)O (stereo in doubt; form 1) | 1900 | – | – | Plasma level (Rattus norvegicus [3]): 81 nM; Plasma level (Rattus norvegicus [4]): 52 nM; Plasma level (Rattus norvegicus [5]): 220 nM
COc1ccc([C@@H]2c3nc(NC(C)C)ccc3[C@H](c3ccc4c(c3)OCO4)[C@H]2C(=O)O)c(CCO)c1 | 610 | 0.031 nM | 19 nM | –
COc1ccc([C@@H]2c3nc(NC(C)C)ccc3[C@H](c3ccc4c(c3)OCO4)[C@H]2C(=O)O)c(CCCO)c1 | 910 | 0.022 nM | 20 nM | –
COc1ccc([C@@H]2c3nc(NC(C)C)ccc3[C@H](c3ccc4c(c3)OCO4)[C@H]2C(=O)O)c(CC(O)CO)c1 (stereo in doubt) [listing 1 of 2 here] | 120 | – | – | –
COc1ccc([C@@H]2c3nc(NC(C)C)ccc3[C@H](c3ccc4c(c3)OCO4)[C@H]2C(=O)O)c(OC(C)CO)c1 (stereo in doubt; form 1) [listing 1 of 2 here] | 1700 | – | – | Plasma level (Rattus norvegicus [8]): 62 nM; Plasma level (Rattus norvegicus [9]): 47 nM; Plasma level (Rattus norvegicus [10]): 160 nM
COc1ccc([C@@H]2c3nc(NC(C)C)ccc3[C@H](c3ccc4c(c3)OCO4)[C@H]2C(=O)O)c(O)c1 | 1300 | 0.22 nM | 290 nM | –
COc1ccc([C@@H]2c3nc(NC(C)C)ccc3[C@H](c3ccc4c(c3)OCO4)[C@H]2C(=O)O)c(CC(O)CO)c1 (single isomer, unassigned) [listing 1 of 2 here] | 550 | – | – | –
COc1ccc([C@@H]2c3nc(NC(C)C)ccc3[C@H](c3ccc4c(c3)OCO4)[C@H]2C(=O)O)c(CCC(C)(C)O)c1 | 350 | 0.065 nM | 23 nM | –
COc1ccc([C@@H]2c3nc(NC(C)C)ccc3[C@H](c3ccc4c(c3)OCO4)[C@H]2C(=O)O)c(OC(C)CO)c1 (stereo in doubt; form 2) [listing 1 of 2 here] | – | 0.057 nM | 78 nM | PKB (Oryctolagus cuniculus): 7.46
CCC(CO)Cc1cc(OC)ccc1[C@@H]1c2nc(NC(C)C)ccc2[C@H](c2ccc3c(c2)OCO3)[C@H]1C(=O)O (stereo in doubt; form 2) [listing 1 of 2 here] | 910 | – | – | –
COc1ccc([C@@H]2c3nc(NC(C)C)ccc3[C@H](c3ccc4c(c3)OCO4)[C@H]2C(=O)O)c(CC(C)C(=O)N(C)C)c1 (single isomer, unassigned) [listing 1 of 2 here] | 680 | – | – | –

Compound | Selectivity ratio [1] | IC50 (Endothelin-1 receptor) | IC50 [6] | also measured
CCC(CO)Cc1cc(OC)ccc1[C@@H]1c2nc(NC(C)C)ccc2[C@H](c2ccc3c(c2)OCO3)[C@H]1C(=O)O (stereo in doubt; form 2) [listing 2 of 2 here] | – | 0.011 nM | 11 nM | –
COCC(C)Cc1cc(OC)ccc1[C@@H]1c2nc(NC(C)C)ccc2[C@H](c2ccc3c(c2)OCO3)[C@H]1C(=O)O (stereo in doubt; form 2) [listing 1 of 2 here] | – | 0.011 nM | 25 nM | AD50 (Mus musculus): 0.042 MPK
COc1ccc([C@@H]2c3nc(NC(C)C)ccc3[C@H](c3ccc4c(c3)OCO4)[C@H]2C(=O)O)c(CC(C)C(=O)N(C)C)c1 (stereo in doubt) [listing 2 of 2 here] | – | 0.024 nM | 43 nM | AD50 (Mus musculus): 0.017 MPK
COc1ccc([C@@H]2c3nc(NC(C)C)ccc3[C@H](c3ccc4c(c3)OCO4)[C@H]2C(=O)O)c(CC(O)CO)c1 (stereo in doubt) [listing 2 of 2 here] | – | 0.048 nM | 5.6 nM | –
COc1ccc([C@@H]2c3nc(NC(C)C)ccc3[C@H](c3ccc4c(c3)OCO4)[C@H]2C(=O)O)c(CC(C)CO)c1 (stereo in doubt; form 1) [listing 2 of 2 here] | 1300 | – | – | Plasma level (Rattus norvegicus [3]): 22 nM; Plasma level (Rattus norvegicus [4]): 11 nM; Plasma level (Rattus norvegicus [5]): 110 nM
COc1ccc([C@@H]2c3nc(NC(C)C)ccc3[C@H](c3ccc4c(c3)OCO4)[C@H]2C(=O)O)c(OC(C)C)c1 | 800 | 0.11 nM | 88 nM | –
CCCOc1cc(OC)ccc1[C@@H]1c2nc(NC(C)C)ccc2[C@H](c2ccc3c(c2)OCO3)[C@H]1C(=O)O | 240 | 0.41 nM | 100 nM | –
COc1ccc([C@@H]2c3nc(NC(C)C)ccc3[C@H](c3ccc4c(c3)OCO4)[C@H]2C(=O)O)c(CN(C)C(C)=O)c1 | 1600 | 0.027 nM | 43 nM | Plasma level (Rattus norvegicus [3]): 3 nM; Plasma level (Rattus norvegicus [4]): 0.4 nM; PKB (Oryctolagus cuniculus): 8.97; Plasma level (Rattus norvegicus [5]): 2 nM
CCC(CO)Cc1cc(OC)ccc1[C@@H]1c2nc(NC(C)C)ccc2[C@H](c2ccc3c(c2)OCO3)[C@H]1C(=O)O (stereo in doubt; form 1) [listing 2 of 2 here] | – | 0.045 nM | 15.7 nM | –
COc1ccc([C@@H]2c3nc(NC(C)C)ccc3[C@H](c3ccc4c(c3)OCO4)[C@H]2C(=O)O)c(CC(C)CO)c1 (stereo in doubt; form 2) [listing 1 of 2 here] | – | 0.059 nM | 51 nM | –
COc1ccc([C@@H]2c3nc(NC(C)C)ccc3[C@H](c3ccc4c(c3)OCO4)[C@H]2C(=O)O)c(CC(C)(C)O)c1 | 1000 | 0.014 nM | 14 nM | Plasma level (Rattus norvegicus [8]): 110 nM; Plasma level (Rattus norvegicus [9]): 48 nM; AD50 (Mus musculus): 0.042 MPK; Plasma level (Rattus norvegicus [10]): 460 nM
COc1ccc([C@@H]2c3nc(NC(C)C)ccc3[C@H](c3ccc4c(c3)OCO4)[C@H]2C(=O)O)c(OC(C)CO)c1 (stereo in doubt; form 1) [listing 2 of 2 here] | – | 0.036 nM | 61 nM | AD50 (Mus musculus): 0.046 MPK; PKB (Oryctolagus cuniculus): 8
COc1ccc([C@@H]2c3nc(NC(C)C)ccc3[C@H](c3ccc4c(c3)OCO4)[C@H]2C(=O)O)c(CC(O)CO)c1 (single isomer, unassigned) [listing 2 of 2 here] | – | 0.011 nM | 6 nM | –
COc1ccc([C@@H]2c3nc(NC(C)C)ccc3[C@H](c3ccc4c(c3)OCO4)[C@H]2C(=O)O)c(CC(C)C(=O)N(C)C)c1 (single isomer, unassigned) [listing 2 of 2 here] | – | 0.014 nM | 9.5 nM | –
COc1ccc([C@@H]2c3nc(NC(C)C)ccc3[C@H](c3ccc4c(c3)OCO4)[C@H]2C(=O)O)c(OCc2ccccc2)c1 | 600 | 0.8 nM | 480 nM | –
COc1ccc([C@@H]2c3nc(NC(C)C)ccc3[C@H](c3ccc4c(c3)OCO4)[C@H]2C(=O)O)c(CC(C)CO)c1 (stereo in doubt; form 2) [listing 2 of 2 here] | 860 | – | – | –
COc1ccc([C@@H]2c3nc(NC(C)C)ccc3[C@H](c3ccc4c(c3)OCO4)[C@H]2C(=O)O)c(OC(C)CO)c1 (stereo in doubt; form 2) [listing 2 of 2 here] | – | – | – | Plasma level (Rattus norvegicus [8]): 69 nM; Plasma level (Rattus norvegicus [9]): 20 nM; Plasma level (Rattus norvegicus [10]): 440 nM
COCC(C)Cc1cc(OC)ccc1[C@@H]1c2nc(NC(C)C)ccc2[C@H](c2ccc3c(c2)OCO3)[C@H]1C(=O)O (stereo in doubt; form 2) [listing 2 of 2 here] | 2300 | – | – | Plasma level (Rattus norvegicus [8]): 120 nM; Plasma level (Rattus norvegicus [9]): 130 nM; Plasma level (Rattus norvegicus [10]): 810 nM
